From ChEMBL document CHEMBL5465560, “Selectivity Literature for EUbOPEN Chemogenomic Library” (2024)

Columns and labels:
[1] = target: Ribosomal protein S6 kinase alpha-6 (Homo sapiens, UniProt Q9UK32); assay: Selectivity interaction (Kinase panel (Eurofins, enzymatic assay)) EUB0000311b RPS6KA6
[2] = target: Ephrin type-A receptor 2 (Homo sapiens) (UniProt P29317); assay: Selectivity interaction (Millipore kinase profiler) EUB0000124b EPHA2; conditions: at 10 µM
[3] = target: Protein arginine N-methyltransferase 6 (Homo sapiens, UniProt Q96LA8); conditions: at 10 µM
[4] = target: T1, Gamma-aminobutyric acid receptor subunit alpha-1 (Homo sapiens) (UniProt P14867); assay: Selectivity interaction (Eurofins CEREP Diversity Profile (receptors and ion channels)) EUB0000279b GABRA1; conditions: at 10 µM
T1 sequence (whole entry): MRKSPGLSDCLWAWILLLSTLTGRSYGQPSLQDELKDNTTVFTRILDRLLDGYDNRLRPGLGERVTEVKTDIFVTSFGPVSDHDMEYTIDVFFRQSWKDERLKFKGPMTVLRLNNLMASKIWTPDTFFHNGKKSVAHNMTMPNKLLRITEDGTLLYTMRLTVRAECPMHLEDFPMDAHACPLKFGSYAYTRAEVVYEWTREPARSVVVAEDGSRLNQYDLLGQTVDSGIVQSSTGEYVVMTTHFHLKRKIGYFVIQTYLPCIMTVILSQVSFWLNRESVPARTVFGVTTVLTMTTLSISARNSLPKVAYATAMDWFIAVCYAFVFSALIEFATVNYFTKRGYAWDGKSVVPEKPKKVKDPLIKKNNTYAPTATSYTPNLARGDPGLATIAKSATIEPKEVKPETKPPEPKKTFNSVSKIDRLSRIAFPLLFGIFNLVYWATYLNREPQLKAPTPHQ

[5] = target: Phosphatidylinositol 4-kinase beta (Homo sapiens, UniProt Q9UBF8); assay: Selectivity interaction (Kinase panel (KiNativ target engagement assay in Jurkat cells)) EUB0001635a PI4KB; type: cell-based; conditions: Selectivity number of off-targets 0.0, Selectivity number of targets 233.0, Source Knowledge https://www.sciencedirect.com/science/article/pii/S2451945619300674?via%3Dihub, at 1 µM
[6] = target: Mitogen-activated protein kinase 8 (Homo sapiens, UniProt P45983); assay: Selectivity interaction (Kinase panel (Invitrogen)) EUB0000639a MAPK8; conditions: at 200 nM
[7] = target: Cyclin-dependent kinase 18 (Homo sapiens) (UniProt Q07002); assay: Selectivity interaction (ActivX KiNativ screen (kinase selectivity in THP-1 cell lysates)) EUB0000639a CDK18; type: subcellular; conditions: lysate, at 0.2 µM
[8] = target: Mitogen-activated protein kinase 14 (Homo sapiens, UniProt Q16539); assay: Selectivity interaction (Ambit KINOMEscan and KiNATiv profiling in Jurkat cells) EUB0000090b MAPK14; type: cell-based; conditions: at 1 µM
[9] = target: Mitotic checkpoint serine/threonine-protein kinase BUB1 (Homo sapiens, UniProt O43683)
[10] = target: T2, Mitogen-activated protein kinase kinase kinase 5 (Homo sapiens) (UniProt Q99683); assay: Selectivity interaction (KinomeScan (DiscoverX)) EUB0000655a MAP3K5; conditions: at 10 µM
T2 sequence (whole entry): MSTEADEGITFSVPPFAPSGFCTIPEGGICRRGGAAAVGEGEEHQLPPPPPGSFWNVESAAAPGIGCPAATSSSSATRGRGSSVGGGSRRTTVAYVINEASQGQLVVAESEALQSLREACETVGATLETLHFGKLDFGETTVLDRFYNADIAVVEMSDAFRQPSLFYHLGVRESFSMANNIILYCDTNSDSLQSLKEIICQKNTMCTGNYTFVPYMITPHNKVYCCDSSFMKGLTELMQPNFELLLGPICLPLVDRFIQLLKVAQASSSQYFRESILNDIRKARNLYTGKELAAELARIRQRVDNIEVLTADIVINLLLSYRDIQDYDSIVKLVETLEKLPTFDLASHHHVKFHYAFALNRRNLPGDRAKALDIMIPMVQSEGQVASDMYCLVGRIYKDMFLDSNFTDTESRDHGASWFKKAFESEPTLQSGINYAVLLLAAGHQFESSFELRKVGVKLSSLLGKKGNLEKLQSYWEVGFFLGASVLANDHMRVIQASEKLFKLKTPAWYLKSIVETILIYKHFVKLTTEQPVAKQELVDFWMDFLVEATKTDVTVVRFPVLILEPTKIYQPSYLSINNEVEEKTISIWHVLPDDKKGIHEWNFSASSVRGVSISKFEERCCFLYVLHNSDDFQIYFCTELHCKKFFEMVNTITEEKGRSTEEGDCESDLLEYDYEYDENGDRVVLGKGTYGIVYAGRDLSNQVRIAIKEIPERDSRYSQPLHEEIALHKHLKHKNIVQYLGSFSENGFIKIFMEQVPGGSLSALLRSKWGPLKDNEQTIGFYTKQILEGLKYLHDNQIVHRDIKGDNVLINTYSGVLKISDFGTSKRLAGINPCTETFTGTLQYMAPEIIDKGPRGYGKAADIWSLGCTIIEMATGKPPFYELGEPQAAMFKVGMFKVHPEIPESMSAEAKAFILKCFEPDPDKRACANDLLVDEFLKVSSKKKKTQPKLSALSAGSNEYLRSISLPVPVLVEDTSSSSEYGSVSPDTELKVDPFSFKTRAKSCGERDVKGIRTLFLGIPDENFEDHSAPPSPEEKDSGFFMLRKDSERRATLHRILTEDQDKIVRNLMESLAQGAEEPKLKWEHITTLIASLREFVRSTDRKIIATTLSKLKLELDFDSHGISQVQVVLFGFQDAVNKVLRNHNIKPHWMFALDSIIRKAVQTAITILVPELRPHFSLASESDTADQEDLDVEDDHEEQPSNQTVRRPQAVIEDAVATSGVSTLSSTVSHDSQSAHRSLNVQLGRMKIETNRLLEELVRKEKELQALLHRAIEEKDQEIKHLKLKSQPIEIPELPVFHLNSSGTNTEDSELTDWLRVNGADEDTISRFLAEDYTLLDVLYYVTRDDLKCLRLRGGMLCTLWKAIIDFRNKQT

Chain of Ribosomal protein S6 kinase alpha-6 (Q9UK32 whole entry): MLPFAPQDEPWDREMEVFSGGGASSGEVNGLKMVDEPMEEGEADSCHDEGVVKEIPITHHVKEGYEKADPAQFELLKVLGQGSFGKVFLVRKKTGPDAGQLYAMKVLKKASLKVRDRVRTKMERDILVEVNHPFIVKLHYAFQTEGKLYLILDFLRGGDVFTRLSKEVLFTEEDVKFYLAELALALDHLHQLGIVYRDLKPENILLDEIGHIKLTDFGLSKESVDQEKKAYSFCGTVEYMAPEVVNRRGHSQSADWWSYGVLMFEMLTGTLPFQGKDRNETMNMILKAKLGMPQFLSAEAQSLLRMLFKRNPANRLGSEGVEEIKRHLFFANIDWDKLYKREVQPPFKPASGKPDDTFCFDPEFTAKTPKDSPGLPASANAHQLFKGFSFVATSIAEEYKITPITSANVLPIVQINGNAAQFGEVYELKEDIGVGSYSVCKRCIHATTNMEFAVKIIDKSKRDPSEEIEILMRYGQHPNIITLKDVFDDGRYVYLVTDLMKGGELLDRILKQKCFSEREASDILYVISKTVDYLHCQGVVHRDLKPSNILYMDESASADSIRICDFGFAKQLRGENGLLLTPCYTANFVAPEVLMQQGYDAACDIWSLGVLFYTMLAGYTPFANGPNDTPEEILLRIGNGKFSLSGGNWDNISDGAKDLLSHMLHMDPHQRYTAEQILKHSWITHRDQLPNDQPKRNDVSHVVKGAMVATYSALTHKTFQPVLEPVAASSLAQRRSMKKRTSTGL
Chain of Mitogen-activated protein kinase 14 (Q16539 whole entry): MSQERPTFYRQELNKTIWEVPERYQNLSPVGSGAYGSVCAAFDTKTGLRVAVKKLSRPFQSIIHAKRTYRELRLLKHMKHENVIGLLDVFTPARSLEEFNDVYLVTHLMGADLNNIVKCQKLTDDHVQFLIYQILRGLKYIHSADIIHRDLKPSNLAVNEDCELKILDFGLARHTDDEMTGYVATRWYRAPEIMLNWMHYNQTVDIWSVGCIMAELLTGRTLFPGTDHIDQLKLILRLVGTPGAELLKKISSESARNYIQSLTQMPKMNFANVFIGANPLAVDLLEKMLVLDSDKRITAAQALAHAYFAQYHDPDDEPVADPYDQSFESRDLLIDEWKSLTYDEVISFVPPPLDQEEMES
Chain of Cyclin-dependent kinase 18 (Homo sapiens) (Q07002 whole entry): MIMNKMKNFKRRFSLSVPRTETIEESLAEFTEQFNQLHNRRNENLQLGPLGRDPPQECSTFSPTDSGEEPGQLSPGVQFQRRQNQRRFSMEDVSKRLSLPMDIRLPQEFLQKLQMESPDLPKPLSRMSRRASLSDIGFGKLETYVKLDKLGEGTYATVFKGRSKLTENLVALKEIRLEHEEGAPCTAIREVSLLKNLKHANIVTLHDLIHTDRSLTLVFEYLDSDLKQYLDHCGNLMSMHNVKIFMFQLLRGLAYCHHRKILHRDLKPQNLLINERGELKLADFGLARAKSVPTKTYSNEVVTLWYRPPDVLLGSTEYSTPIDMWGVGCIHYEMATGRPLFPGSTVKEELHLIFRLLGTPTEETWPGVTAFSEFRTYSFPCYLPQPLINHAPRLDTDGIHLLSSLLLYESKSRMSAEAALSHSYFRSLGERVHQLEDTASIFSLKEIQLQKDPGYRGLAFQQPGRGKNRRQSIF
Chain of Phosphatidylinositol 4-kinase beta (Q9UBF8 2-816 limits assumed): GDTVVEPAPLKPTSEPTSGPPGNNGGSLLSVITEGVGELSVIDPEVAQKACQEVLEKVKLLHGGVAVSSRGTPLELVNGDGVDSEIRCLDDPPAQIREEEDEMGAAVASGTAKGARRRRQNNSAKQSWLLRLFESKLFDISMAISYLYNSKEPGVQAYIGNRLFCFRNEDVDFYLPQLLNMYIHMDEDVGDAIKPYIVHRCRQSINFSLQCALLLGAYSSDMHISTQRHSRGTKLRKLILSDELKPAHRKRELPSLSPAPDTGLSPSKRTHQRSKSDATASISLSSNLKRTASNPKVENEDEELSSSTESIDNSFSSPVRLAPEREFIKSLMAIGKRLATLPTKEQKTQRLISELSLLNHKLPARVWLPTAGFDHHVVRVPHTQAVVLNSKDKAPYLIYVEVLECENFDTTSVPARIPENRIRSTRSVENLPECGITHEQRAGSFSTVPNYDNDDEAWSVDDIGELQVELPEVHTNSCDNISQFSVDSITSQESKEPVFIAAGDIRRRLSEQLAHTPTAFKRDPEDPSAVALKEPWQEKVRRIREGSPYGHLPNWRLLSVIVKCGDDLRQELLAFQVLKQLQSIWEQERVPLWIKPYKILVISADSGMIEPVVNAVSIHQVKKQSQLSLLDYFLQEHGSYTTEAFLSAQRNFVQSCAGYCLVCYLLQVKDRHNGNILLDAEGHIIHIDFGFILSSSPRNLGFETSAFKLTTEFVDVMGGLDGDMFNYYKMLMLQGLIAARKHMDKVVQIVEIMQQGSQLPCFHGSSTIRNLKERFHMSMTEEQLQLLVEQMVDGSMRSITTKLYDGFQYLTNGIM
Chain of Mitotic checkpoint serine/threonine-protein kinase BUB1 (O43683 whole entry): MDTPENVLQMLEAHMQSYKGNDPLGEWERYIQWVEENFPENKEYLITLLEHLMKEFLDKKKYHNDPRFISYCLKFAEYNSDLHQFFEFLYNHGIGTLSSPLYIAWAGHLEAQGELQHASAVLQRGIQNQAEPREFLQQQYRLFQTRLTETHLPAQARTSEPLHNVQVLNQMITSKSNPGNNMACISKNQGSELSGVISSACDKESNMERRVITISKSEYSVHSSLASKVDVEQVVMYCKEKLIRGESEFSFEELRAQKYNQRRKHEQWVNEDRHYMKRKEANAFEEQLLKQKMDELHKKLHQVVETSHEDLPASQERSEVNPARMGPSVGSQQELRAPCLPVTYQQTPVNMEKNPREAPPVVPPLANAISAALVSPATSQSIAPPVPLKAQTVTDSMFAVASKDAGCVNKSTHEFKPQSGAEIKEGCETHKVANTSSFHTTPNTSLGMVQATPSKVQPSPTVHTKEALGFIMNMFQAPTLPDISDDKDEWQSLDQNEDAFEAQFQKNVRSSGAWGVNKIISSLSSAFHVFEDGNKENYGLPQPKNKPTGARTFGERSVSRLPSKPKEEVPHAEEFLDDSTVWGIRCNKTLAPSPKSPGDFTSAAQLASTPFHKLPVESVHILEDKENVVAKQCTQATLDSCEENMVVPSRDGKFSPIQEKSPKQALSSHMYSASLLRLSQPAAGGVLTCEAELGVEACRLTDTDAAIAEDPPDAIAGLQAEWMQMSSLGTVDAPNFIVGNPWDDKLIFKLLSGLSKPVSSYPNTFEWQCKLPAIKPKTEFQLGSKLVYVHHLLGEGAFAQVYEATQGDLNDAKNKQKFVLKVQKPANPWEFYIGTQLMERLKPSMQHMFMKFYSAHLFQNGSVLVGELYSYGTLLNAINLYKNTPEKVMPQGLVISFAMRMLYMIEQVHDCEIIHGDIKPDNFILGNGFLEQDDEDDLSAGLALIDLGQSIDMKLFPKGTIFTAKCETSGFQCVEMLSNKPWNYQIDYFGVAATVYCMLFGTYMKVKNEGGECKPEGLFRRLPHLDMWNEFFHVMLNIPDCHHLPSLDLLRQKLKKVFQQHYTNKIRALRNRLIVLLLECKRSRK
Chain of Mitogen-activated protein kinase 8 (P45983 whole entry): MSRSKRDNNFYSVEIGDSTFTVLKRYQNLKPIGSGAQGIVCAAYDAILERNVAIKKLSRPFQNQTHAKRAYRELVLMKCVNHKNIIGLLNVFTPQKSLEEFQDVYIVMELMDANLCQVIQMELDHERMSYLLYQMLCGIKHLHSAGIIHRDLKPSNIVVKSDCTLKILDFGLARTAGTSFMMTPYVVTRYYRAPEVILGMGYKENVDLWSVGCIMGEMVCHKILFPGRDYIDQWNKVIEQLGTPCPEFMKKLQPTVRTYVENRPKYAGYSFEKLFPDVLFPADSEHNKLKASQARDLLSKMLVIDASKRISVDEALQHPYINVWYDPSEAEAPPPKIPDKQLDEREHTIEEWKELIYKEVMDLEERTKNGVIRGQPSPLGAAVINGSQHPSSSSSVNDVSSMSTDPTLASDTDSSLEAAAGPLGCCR
Chain of Protein arginine N-methyltransferase 6 (Q96LA8 whole entry, looked up): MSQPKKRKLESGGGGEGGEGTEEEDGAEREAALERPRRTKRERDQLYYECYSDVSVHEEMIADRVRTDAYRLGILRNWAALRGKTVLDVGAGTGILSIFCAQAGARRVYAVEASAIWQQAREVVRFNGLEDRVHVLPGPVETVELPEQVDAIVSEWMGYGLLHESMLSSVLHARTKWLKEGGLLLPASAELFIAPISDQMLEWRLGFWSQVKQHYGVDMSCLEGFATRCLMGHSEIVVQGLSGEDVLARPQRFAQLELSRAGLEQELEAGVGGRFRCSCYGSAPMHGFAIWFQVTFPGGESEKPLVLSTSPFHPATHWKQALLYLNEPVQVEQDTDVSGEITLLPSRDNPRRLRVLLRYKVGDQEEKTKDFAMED

With CCc1ccccc1C(=O)Nc1n[nH]c2c(C)c(F)c(C3C(C#N)=C(C)N(C)C(C)=C3C#N)cc12 [BAY-3827] the IC50 [1] was 36 nM.
CC(=O)Nc1cccc(-n2c(=O)n(C3CC3)c(=O)c3c(Nc4ccc(I)cc4F)n(C)c(=O)c(C)c32)c1 showed a % of control [2] of 93%.
CNCCN1CCC(c2cc(CN(C)C(=O)c3cccc(Oc4ccccc4)c3)ccn2)CC1 showed a % activity [3] of 42%.
In the case of CC(=O)c1cc(-c2ccccc2OCC2CC2)c2ncccn12, the % of control [4] is reported as 112%.
Compound C=CC(=O)Nc1ccc(C(=O)Nc2[nH]nc3c2CN(C(=O)N[C@H](CN(C)C)c2ccccc2)C3(C)C)cc1 has a % of engagement [5] of -11.3%.
Compound CC[C@@H]1[C@H](F)C(=O)N[C@@H]1COc1nccc2cc(C(N)=O)c(OC)cc12 [ZIMLOVISERTIB] has a % of inhibition [6] of 6.17% and a % of inhibition [7] of 0.4%.
With CN(C)C/C=C/C(=O)Nc1ccc(C(=O)N2CCCC(Nc3ncc(Cl)c(-c4c[nH]c5ccccc45)n3)C2)cc1 (stereo not given) the % of control [8] was 92%.
CCc1cccc(CC)c1NC(=O)c1nn(C)c2c1CCc1cnc(Nc3ccc(C(=O)NC4CCN(C)CC4)cc3OC(F)(F)F)nc1-2 was tested, and the IC50 [9] was over 10000 nM.
For CN(C)CCOc1ccc(-c2nc(-c3ccncc3)c(-c3ccc4c(c3)CC/C4=N\O)[nH]2)cc1, the % of control [10] was 94%.
